Experimental data from patent US20040266732A1, “Therapeutic agents, methods, and treatments” (priority 2002, published 2004).
pIC50: −log10 of the molar value.

Columns and labels:
Test in all cases: NCI 60 cell-line test
Format in all cases: cell-based, human
[1] = test system: MALME-3M; conditions: MALME-3M (Melanoma)
Method in brief: (§1)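 Plating densities of 5,000 to 40,000 cells/well depended on doubling time; drug was added after 24 h preincubation. Plates were incubated 48 h more, fixed with cold TCA (suspension cells with 80% TCA), stained with 0.4% SRB and read at 515 nm.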

[2] = test system: SF-295; conditions: SF-295 (CNS Cancer)
Method in brief: as §1

[3] = test system: SK-MEL-28; conditions: SK-MEL-28 (Melanoma)
Method in brief: as §1

[4] = test system: HCT-116; conditions: HCT-116 (Colon Cancer)
Method in brief: as §1

[5] = test system: SK-MEL-2; conditions: SK-MEL-2 (Melanoma)
Method in brief: as §1

[6] = test system: IGROV1; conditions: IGROV1 (Ovarian Cancer)
Method in brief: as §1

[7] = test system: MDA-N; conditions: MDA-N (Breast Cancer)
Method in brief: as §1

[8] = test system: MDA-MB-231/ATCC; conditions: MDA-MB-231/ATCC (Breast Cancer)
Method in brief: as §1

[9] = test system: A549/ATCC; conditions: A549/ATCC (Non-Small Cell Lung Cancer)
Method in brief: as §1

[10] = test system: NCI-H522; conditions: NCI-H522 (Non-Small Cell Lung Cancer)
Method in brief: as §1

[11] = test system: UACC-62; conditions: UACC-62 (Melanoma)
Method in brief: as §1

[12] = read-out: LC50 (the source's name)

With `CC1(C)C2CC[C@@]1(CS(=O)(=O)N(C1CCCCC1)C1CCCCC1)C(O)C2` (stereo partly drawn) [MT103] the TGI [1] was 4.44E−05, the pIC50 ([1]; read-out: G150) was 4.88 and the CC50 [1, 12] was greater than 100 µM. It also gave a TGI [2] greater than 1.00E−04, a pIC50 ([2]; read-out: G150) of 4.65 and a CC50 [2, 12] greater than 100 µM. The TGI [3] was greater than 1.00E−04, the pIC50 ([3]; read-out: G150) was 4.29 and the CC50 [3, 12] was greater than 100 µM. For the same molecule, the TGI [4] was greater than 1.00E−04, the pIC50 ([4]; read-out: G150) was 4.36 and the CC50 [4, 12] was greater than 100 µM. It also gave a TGI [5] of 6.77E−05, a pIC50 ([5]; read-out: G150) of 4.59 and a CC50 [5, 12] greater than 100 µM. It also gave a TGI [6] greater than 1.00E−04, a pIC50 ([6]; read-out: G150) of 4.46 and a CC50 [6, 12] greater than 100 µM. It also gave a TGI [7] greater than 1.00E−04, a pIC50 ([7]; read-out: G150) of 4.57 and a CC50 [7, 12] greater than 100 µM. For the same molecule, the TGI [8] was 4.71E−05, the pIC50 ([8]; read-out: G150) was 4.77 and the CC50 [8, 12] was greater than 100 µM. For the same molecule, the TGI [9] was greater than 1.00E−04, the pIC50 ([9]; read-out: G150) was 4.55 and the CC50 [9, 12] was greater than 100 µM. For the same molecule, the TGI [10] was 5.50E−05, the pIC50 ([10]; read-out: G150) was 4.67 and the CC50 [10, 12] was greater than 100 µM. The TGI [11] was 4.65E−05, the pIC50 ([11]; read-out: G150) was 4.73 and the CC50 [11, 12] was greater than 100 µM.
